Experimental data published in patent publication US20050100888A1, “Methods based on hormone dependency of primary cancer cells” (Imperial College Innovations Limited, priority 2002, published 2005).

Tests used:
estrogen receptor (ER) [1] = test: viral ER reporter in ER negative breast cancer cell lines; assay type: cell-based, human; settings: virus 100:1
Protocol: FIG. 3: Reporter activity in variety of estrogen receptor alpha positive (MCF-7, T47-D, ZR75-1, BT474) and negative (Cal-51, SkBr3, and MDA-MB231 cell lines). For each figure, the order is as follows: (1) refers to the no ligand control.
For adenovirus infections, cell lines were plated in 96 wells at the given density in phenol red free DMEM supplemented with 5% double-stripped serum (PR/5% DSS). The following day cells were exposed to the given quantity of plaque forming units per cell (multiplicity of infection, MOI) in PR/SF medium. This was incubated at 37° C. for 1 hour after which the media was replaced by PR free/5% DSS containing the ligands.
(§1) Reporter Gene Assay 48 hours after virus infection, 20 ul of 20% Triton in PBS was added to each well and incubated at RT for 10 minutes. […] (CRPG) made up in TBS at a concentration of 8 mg/ml was then added to the wells and the plate was incubated, foil-wrapped, at 37° C. until a colour change was observed. Plate readings were taken at a wavelength of 547 nm.
We went on to test the virus reporter in a variety of ER positive and ER negative cell lines. Again 0.5×10^5 cells were infected with 100 virus per cell (100:1). Using the GFP virus it was evident that the infectability of the cell lines was variable. […]

estrogen receptor (ER) [2] = test: adenoERreporter assay in breast cancer cells from metastatic effusions (pleural, ascites); assay type: cell-based, human
Excerpt: In the case of metastatic fluid, 100 mls of the fluid was sent for cytological examination and staining for ER and PR. The remaining fluid was centrifuged and the cell pellets were pooled. This was re-suspended in RPMI-1640/1% FCS and tumour cell numbers estimated as before. If the cells were in clusters, trypsin/EDTA (Sigma, Poole, UK) was used to obtain single cell suspensions before filtering to remove any debris. The remaining steps were as above. The purified cells were either infected immediately or cultured for a few days prior to infection.
For infections of primary cells, 6-10,000 cells/well were allowed and exposed to the given quantity of virus, after which they were pelleted and re-supended in 200 ul of PR free/5% DSS medium containing the appropriate ligands prior to plating into 96-well plates.
as §1
We purified breast cancer cells from metastatic fluid, both pleural and ascites as well as fine needle aspirates (FNA) from recurrent breast cancer. These cells were counted and infected with adenoERreporter and after 48 hours a β-gal assay was performed. We have infected 9 metastatic effusions including 2 cell lines of passage number two, derived from pleural effusions and 4 FNAs. Tables 3 and 4 show the treatment history and characteristics of the patients that provided the samples. Where possible, some of the fluid was sent for cytology and ER staining.

`C[C@]12CC[C@@H]3c4ccc(O)cc4C[C@@H](CCCCCCCCC[S+]([O-])CCCC(F)(F)C(F)(F)F)[C@H]3[C@@H]1CC[C@@H]2O` (some centres unmarked) [ICI 182,780] was tested, and the “effect on ERE driven β-gal reporter / baseline activity” value (estrogen receptor (ER) [1]) was “did not have a significant effect on the baseline activity”, the “Reporter Activity” value (estrogen receptor (ER) [2]; Table 3 patient 7) T4G3N1M0, Ascites, ER−/PR−, no prior endocrine treatment) was “x1.0” and the “Reporter Activity” value (estrogen receptor (ER) [2]; Table 3 patient 8) T1G1N1M0, Ascites, primary ER−/PR+, recurrent ER++/PR−, prior LHRH 11m, Arimidex) was “↓↓”. The “effect on ER activity” value (estrogen receptor (ER) [2]; patient 4 (table 3), ascites, no previous treatment) was “inhibitory” and the “proportion of cases in which inhibitory” value (estrogen receptor (ER) [2]; relapsed patients, metastatic effusions and FNAs) was 50%.
